From US20060167109A1, “Methods of reducing rhinovirus contagion and related compositions” (priority 2002, published 2006)

Key:
Format in all cases: cell-based, human rhinovirus
HRV serotype 14 = test: Reversibility of pleconaril binding
Description: (§1) The first question presented is whether pleconaril could bind to human rhinoviruses irreversibly. Various HRVs were incubated overnight at 4° C. with pleconaril at a concentration approximately 10 times the IC50 value. Parallel samples were incubated in medium with 0.5% dimethyl sulfoxide (DMSO) alone. The next day, samples were diluted 10,000-fold into pleconaril-free medium and incubated an additional 24 hrs at 4° C., followed by titration by plaque assay.
(§2) After 24 hours, virus samples were diluted 10,000-fold in culture medium and incubated an additional 24 hours at 4° C. Virus titers in the DMSO- and pleconaril-treated samples were then determined by plaque assay in the appropriate cell line as described below.
(§3) In some experiments, virus titers were determined by plaque assay. Cells in 6 well plates were infected with 1 mL of 10-fold dilutions of virus in duplicate for 1 hour at the appropriate incubation temperature. The inoculum was then removed and the cells were overlaid with 3 mL of agarose overlay medium (Eagles minimum essential medium (Life Technologies, Grand Island, N.Y.) with 50 mM Hepes buffer, pH 7.2, 5% FBS, antibiotics, and 1.5% SeaPlaque (HRVs)). The HRV overlay medium was further supplemented with 30 mM MgCl2 and 15 μg/mL DEAE dextran. […] After rinsing and drying, plaques were read manually.

HRV serotype 1A = test: Reversibility of pleconaril binding
Description: as §1, §2, §3

HRV serotype 2 = test: Reversibility of pleconaril binding
Description: as §1, §2, §3

HRV serotype 3 = test: Reversibility of pleconaril binding
Description: as §1, §2, §3

HRV serotype 50 = test: Reversibility of pleconaril binding
Description: as §1, §2, §3

HRV serotype 5 = test: Reversibility of pleconaril binding; conditions: about 10 times IC50, then diluted 10,000-fold, plaque assay
Description: as §1, §2, §3

HRV serotype 89 = test: Reversibility of pleconaril binding
Description: as §1, §2, §3

HRV3 [1] = test: Low pH inactivation; conditions: 2 μM, pH 5.2, FIG. 4
Description: As a second indication of the direct interaction of the drug with the virion capsid, an experiment was conducted to examine the ability of pleconaril to protect HRV3 from low pH inactivation.
Approximately […] plaque forming units (PFU) of virus were incubated with 0.5% DMSO or 2 μM pleconaril (in 0.5% DMSO) overnight at 4° C. For HRV3, samples were diluted into sodium acetate buffer (1 M, pH 5.2 or pH 7.0) for 30 minutes on ice followed by neutralization with 2 volumes of 1M Tris-HCl, pH 8.0. All samples were extracted twice with chloroform prior to titration in the viral cytopathic effect assay on HeLa cells (see below).

HRV3 [2] = test: RNA replication, viral RNA synthesis; conditions: 2 μM, pleconaril-treated cells
Description: Immediately after uncoating, viral gene expression (protein translation) and viral RNA replication begin. However, uncoating must occur before either of these two processes can be initiated. In experiments conducted similarly to the uncoating experiment described above, an experiment was conducted to measure viral RNA synthesis in the presence and absence of pleconaril. At the end of the 2 hours temperature shift, actinomycin D was added to the culture medium to inhibit cellular DNA-dependent RNA synthesis. After 2 hours in the presence of actinomycin D, no cellular RNA synthesis was detectable. At that time, ^3H-uridine was added to the medium and the incubation was allowed to proceed 2.5 hours (a total of 6.5 hours post-attachment). Total cellular RNA was then recovered, electrophoresed on an agarose-urea gel and visualized by fluorography.
HeLa cells in 6 well plates were infected at an MOI of 5 PFU/cell with 1 mL of HRV3 for 1 hour at room temperature in the presence or absence of 2 μM pleconaril. After virus attachment, the incubation was continued for an additional 2 hrs at 33° C. (HRV3). The inoculum was then removed and 3 mL/well of M199 medium with 5% FBS and 5 μg/mL of actinomycin D was added with 2 μM pleconaril or DMSO only (0.5% final concentration). The cells were returned to the incubator for 2 hours, at which time 300 μCi of ^3H-uridine (Amersham) was added per well. […]

With `Cc1cc(CCCOc2c(C)cc(-c3noc(C(F)(F)F)n3)cc2C)on1` [pleconaril, 3-[3,5-dimethyl-4-[3-(3-methyl-5-isoxazolyl)propoxy]phenyl]-5-(trifluoromethyl)-1,2,4-oxadiazole] the “reversibility of binding to the virion” value (HRV serotype 14; HRV serotype 14) was “binds irreversibly”, the “% Recovery of input infectious virus (% SD)” value (from here on “% Recovery … (% SD)”) (HRV serotype 14; serotype 14, about 10 times IC50, then diluted 10,000-fold, plaque assay) was 16.4 (33.9) % and the “reversibility of binding to the virion” value (HRV serotype 1A; HRV-1A) was “reversible upon dilution”. The “% Recovery … (% SD)” value (HRV serotype 1A; serotype 1A, about 10 times IC50, then diluted 10,000-fold, plaque assay) was 85.4 (52.8) %, the “reversibility of binding to the virion” value (HRV serotype 2; HRV-2) was “reversible upon dilution” and the “% Recovery … (% SD)” value (HRV serotype 2; serotype 2, about 10 times IC50, then diluted 10,000-fold, plaque assay) was 65.8 (51.3) %. For the same molecule, the “reversibility of binding to the virion” value (HRV serotype 3; HRV-3) was “reversible upon dilution”, the “% Recovery … (% SD)” value (HRV serotype 3; serotype 3, about 10 times IC50, then diluted 10,000-fold, plaque assay) was 92.8 (40.4) % and the “reversibility of binding to the virion” value (HRV serotype 50; HRV serotype 50) was “binds irreversibly”. The “% Recovery … (% SD)” value (HRV serotype 50; serotype 50, about 10 times IC50, then diluted 10,000-fold, plaque assay) was 11.9 (40) %, the “% Recovery … (% SD)” value (HRV serotype 5) was 118 (53.5) % and the “reversibility of binding to the virion” value (HRV serotype 89; HRV serotype 89) was “binds irreversibly”. For the same molecule, the “% Recovery … (% SD)” value (HRV serotype 89; serotype 89, about 10 times IC50, then diluted 10,000-fold, plaque assay) was 9.9 (100) %, the “protection from low pH inactivation” value (HRV3 [1]) was “protect HRV3 from low pH-induced degradation” and the “HRV3 RNA synthesis” value (HRV3 [2]) was “completely blocked”.
